Data: publication PMC3709818, “A Novel Perspective and Approach to Intestinal Octreotide Absorption: Sinomenine-Mediated Reversible Tight Junction Opening and Its Molecular Mechanism” (International Journal of Molecular Sciences, 2013)
Where a name gives a salt, the structure may show the parent alone.

How the values were obtained:
[1] = OCT transport across Caco-2 cell monolayers; assay type: in vitro ADME, human; settings: Caco-2, 21 days, Transwell, 10 μM OCT with or without 0.5% SN, PBS pH 7.4, 120 min, 37 °C, LC-MS/MS, triplicate, mean ± s.d.
Procedure: Caco-2 cells were seeded onto polycarbonate 12-well Transwell® filter inserts as described above. The OCT transport experiment was performed in the apical-to-basolateral directions in PBS adjusted to pH 7.4 [7]. A volume of 0.5 mL of 0.5% SN containing 10 μM OCT was added to the apical side of Caco-2 cell monolayers. The medium in the basolateral side was buffered by the addition of 1.5 mL PBS of each well. Samples of 0.1 mL were withdrawn at time intervals of 30, 60, 90 and 120 min from the basolateral side after the incubation of the solutions on the apical side of cell monolayers. The samples withdrawn were replaced with an equal volume of buffered PBS. Control experiments were performed using a solution of OCT alone. […]
The results were corrected for dilution and plotted as the percentage cumulative OCT transported as a function of time. The apparent permeability coefficients (Papp) were calculated according to the following equation [33]: Papp = ΔQ/(Δt × A × C0) (cm/s), where ΔQ/Δt is the amount of OCT transported within a given time period or permeability rate (ng/min), A is the surface area of the cell monolayer on the insert (cm^2) and C0 is the initial drug concentration (ng/mL). Permeation enhancement ratios (R) were calculated from the Papp values using the following equation R = Papptest/Pappcontrol.

[2] = everted rat gut sac model; cited from earlier work
claudin-1 = experiment: Claudin-1 gene and protein expression (real-time PCR, western blot, immunofluorescence); assay type: cell-based, human; settings: Caco-2 monolayers
Procedure: Caco-2 cells were grown on 6-well plates for 21 days and were then treated with SN for 2 h. Then, SN was removed by washing the cells with PBS twice. The cells were grown with new culture medium for another 2 h. To observe the effect of PKC on SN, cells in another group were treated with 0.5% SN and 10 μM Ro318220 together for 2 h. Control experiments were performed under the same conditions but without SN. The gene level expressions induced by SN treatment and after its removal were investigated. Total RNA was extracted following a standard guanidinium phenol-chloroform extraction protocol. The quantity of mRNA was determined by measuring the optical density at 260 nm (A260 nm = 1 for 40 μg/mL RNA), and the purity of mRNA was assessed by determining the ratio of the optical density obtained at 260 and 280 nm (pure RNA: A260 nm/A280 nm = 2.0) using a UV-1206 spectrophotometer (Shimadzu, Tokyo, Japan). […] Quantitative real-time PCR was performed using the Applied Biosystems 7500 faster Real-Time PCR System with the SYBR® Premix Ex Taq™ (Tli RNaseH Plus) Master Mix purchased from Takara Bio Inc. (Dalian, China) in triplicate for each sample and each gene. […] The results were expressed as the folds of the CT value for the target mRNA to that of the β-actin mRNA. […]

Caco-2 cell monolayers [3] = experiment: LDH release cytotoxicity assay; assay type: cell-based, human
Procedure: To examine the toxic effects of SN to the Caco-2 cells, a lactate dehydrogenase (LDH) release assay was performed according to Madara and Stafford. The Caco-2 monolayer, which had been cultured in 24-well plates for 21 days, was washed with 500 μL of the PBS and was then incubated with 500 μL of the PBS containing the samples (0.5%, 1%, 2% w/v SN) to be tested at 37 °C for 120 min. Control experiments were performed under the same conditions but without SN. The amounts of LDH in the supernatant were determined using the enzymatic method and following the manufacturer’s instructions of LDH-Cytotoxic test kit from Nanjing KeyGEN Biotech. CO., Ltd. (Nanjing, China). Cytotoxicity was determined after 120 min of SN treatment, and the absorbance at 440 nm (reference wavelength was 650 nm) was measured to determine LDH activity. The cytotoxicity to the Caco-2 cell monolayers was expressed by the ratio of LDH released into the supernatant compared with the control group.
The LDH activity was calculated thus: (U/L) = (ODu − ODc)/(ODs − ODb) × Cs × N × 1000, where ODu, ODc, ODs, ODb represent the absorbance of the test tube, control tube, standard tube, and background tube, respectively, C represents the standard concentration (2 mmol/L) and N represents the dilution ratio of the sample.

Caco-2 cell monolayers [4] = experiment: FD-4 permeability (paracellular flux); assay type: cell-based, human; settings: 0.1% FD-4 apical, 0.5% SN with or without 10 μM Ro318220, up to 120 min, PBS pH 7.4, fluorescence
Procedure: The integrity of the cell monolayer TJs was also examined by evaluating the FD-4 permeability in PBS adjusted to pH 7.4. A volume of 0.5 mL of 0.1% FD-4 containing 0.5% SN or 0.5% SN + 10 μM Ro318220 was added to the apical side of Caco-2 cell monolayers. The medium in basolateral side was buffered by the addition of 1.5 mL PBS to each well. Samples of 0.1 mL were withdrawn at time intervals of 30, 60, 90 and 120 min from the basolateral side after the incubation of the solutions on the apical side of cell monolayers. The samples withdrawn were replaced with an equal volume of buffered PBS. Control experiments were performed using a solution of 0.1% FD-4 alone. All of the experiments were performed in triplicate at 37 °C in an atmosphere of 90% relative humidity and 5% CO2. Basolateral solutions were then sampled and analyzed.
Quantitative analysis of FD-4: Samples were centrifuged at 10,000 rpm for 10 min, and the supernatant was analyzed using a fluorescence spectrophotometer at an excitation wavelength of 495 nm and an emission wavelength of 520 nm (Hitachi, FP6500, Tokyo, Japan).
Permeation clearance: ΔQ/(Δt × C0), where ΔQ/Δt is the permeation flux, i.e., the transport rate (μg/min), and C0 is the initial concentration on the donor side (μg/mL). Clearance was obtained per unit surface area and expressed as nL/min/cm2.

PKC-α = PKC-α translocation cytosol to membrane (western blot); assay type: cell-based, human; settings: Caco-2 cells, 0.5% SN, 2 h
Procedure: Caco-2 cells were grown on 6-well plates and were treated with SN as described above. After treatment, cytosolic, membrane and total protein were extracted following the manufacturer’s instructions of the test kit from Nanjing KeyGEN Biotech. CO., LTD (China). The protocols for western blot analyses have been described previously. The protein concentration was calculated using the BCA Protein Assay Kit from Nanjing KeyGEN Biotech. CO., LTD (China). Equal amounts of protein samples (30 μg protein) were separated onto SDS-polyacrylamide gels (PKC and β-actin were 12% gels, claudin-1 was 15% gels), and the separated proteins were transferred to a PVDF membrane. After blocking in 5% skim milk in Tris-buffered saline containing 0.05% Tween-20 (TTBS), the PVDF membrane was incubated overnight in blocking buffer with diluted primary antibodies: anti-claudin-1 (Abcam, Cambridge, MA, USA, 1:1000 dilution), anti-PKC-α (Beyotime Institute of Biotechnology, China, 1:500 dilution), and anti-β-actin (Zhongshan Goldenbridge Biological Technology, Beijing, China, 1:500 dilution), at 4 °C. […] The product bands were photographed, and the density of each product band was quantified. The intensity of each signal was corrected using the values obtained from the immunodetection of β-actin, and the relative protein intensity was expressed as folds of the content in the normal group.

Caco-2 cell monolayers [5] = experiment: Transepithelial electrical resistance (TEER) measurement; assay type: cell-based, human
Procedure: The cell monolayer integrity was examined by measuring the TEER and evaluating the cell permeability to FD-4 in Caco-2 cell monolayers. The experiments were performed after Caco-2 cells formed polarized monolayers. Cells were seeded onto polycarbonate 12-well Transwell® filter inserts (Corning Costar Corp., Cambridge, MA, USA; pore size 0.4 μm, growth area 1.12 cm^2) at a density of 1 × 10^6 cells/mL, and the cells were grown for 21 days before the TEER study was conducted. After the application of 0.5% SN, TEER was measured at time intervals of 20 min for a period of 120 min. Then, the reversibility of SN on TEER was measured by removing SN from the apical compartment and replacing it with serum-free DMEM for a further 120 min at 20-min intervals. To observe the effect of PKC to SN, cells in another group were treated with 0.5% SN and 10 μM Ro318220 (PKC inhibitor) together for 120 min at 20-min intervals. Control experiments were performed under the same conditions but without SN. All of the experiments were performed in triplicate at 37 °C in an atmosphere of 90% relative humidity and 5% CO2. The TEER measurements across Caco-2 cell monolayers were performed using a Millicell ERS instrument (Millipore, Bedford, MA, USA). The TEER values of these cells after treatment were recorded. Resistance due to the cell monolayers was determined in the presence and the absence of SN after subtracting the contribution of the blank filter. The percent change in TEER was calculated as follows:
(1) TEER=(R1-R0)×A (Ω·cm^2)
where R1 and R0 represent the TEER readings from the wells with cells and the no-cell background wells, respectively, and A (cm^2) represents the surface area of the cell monolayer on the insert.
(2) TEER%=TEERtest/EERinitial×100

Structure (SMILES): C[C@@H](O)[C@@H]1NC(=O)[C@H](CCCCN)NC(=O)[C@@H](Cc2c[nH]c3ccccc23)NC(=O)[C@H](Cc2ccccc2)NC(=O)[C@@H](NC(=O)[C@H](N)Cc2ccccc2)CSSC[C@@H](C(=O)N[C@H](CO)[C@@H](C)O)NC1=O [OCT, Octreotide]
- Papp A→B [1]: 2.67 ± 0.015 ×10⁻⁶ cm/s

Structure (SMILES): C[C@@]12C[C@@]3(O)O[C@@H](O1)[C@]1(COC(=O)c4ccccc4)[C@H]3C[C@@]12O[C@@H]1O[C@H](CO)[C@@H](O)[C@H](O)[C@H]1O [paeoniflorin]
- increase of paeoniflorin absorption when co-incubated with SN [2]: approximately 2.5 fold

Structure (SMILES): COC1=C[C@@H]2[C@@H]3Cc4ccc(OC)c(O)c4[C@]2(CCN3C)CC1=O [SN, Sinomenine hydrochloride]
- claudin-1 expression after SN removal (claudin-1; 0.5% SN 2 h, then 2 h after removal): returned to its normal level
- claudin-1 gene and protein expression vs control (claudin-1; 0.5% SN with or without 10 μM Ro318220, 2 h): distinct loss of claudin-1 gene
- LDH release vs control (Caco-2 cell monolayers [3]; 0.5% w/v SN, 120 min, PBS 37 °C, Caco-2 monolayers cultured 21 days): did not differ from the control
- cytotoxicity by LDH test (Caco-2 cell monolayers [3]; 1% w/v SN, 120 min, Caco-2 monolayers): cytotoxic effects
- LDH release vs control (Caco-2 cell monolayers [3]; 2% w/v SN, 60 min, Caco-2 monolayers): markedly increased LDH activity
- cytotoxicity by LDH test (Caco-2 cell monolayers [3]; 2% w/v SN, 120 min, Caco-2 monolayers): cytotoxic effects
- FD-4 flux (A-B) (Caco-2 cell monolayers [4]): time-dependent increase in FD-4 flux
- PKC-α distribution between cytosolic and membrane fraction (PKC-α): most PKC-α was present in the membrane fraction
- TEER recovery after SN removal vs control (Caco-2 cell monolayers [5]; 0.5% SN 120 min, then removal, at 240 min): no difference compared with the control
- effect on TEER at 120 min vs control (Caco-2 cell monolayers [5]; 0.5% SN with or without 10 μM Ro318220, 120 min, Caco-2 monolayers, triplicate): strong reduction of TEER
- TEER relative to the initial value (Caco-2 cell monolayers [5]; 0.5% SN, 120 min incubation, pH 7.4, Caco-2 monolayers): 43%
- time for transient and reversible opening of TJ (Caco-2 cell monolayers [5]; 0.5% SN, Caco-2 monolayers, recovery after removal): 2 h
